Earlier results, collected in patent US20070244041A1, “Peptide Yy Analogues” (Reoscience A/S, priority 2004, published 2007).
No end group written: not given here.

What was measured:
vagal motor neurons = conditions: applied onto vagal motor neurons

Row | selectivity for Y2 over Y1 receptors (Y2 over Y1 receptors) | Substance | vagal motor neurons activated (vagal motor neurons) | vagal motor neurons with inhibited firing rate (vagal motor neurons)
1 | high selectivity | NPY3-36: truncated neuropeptide Y with high selectivity for Y2 over Y1 receptors | – | –
2 | – | PYY13-36: truncated PYY, a Y2 selective agonist (SPEELNRYYASLRHYLNLVTRQRY; ends and bridges not checked; UniProt P10082 41-64, looked up, fragment) | approximately 5% | approximately 50%
